Experimental data as given in patent publication US20240285631A1, “METHODS OF TREATING VASCULAR MALFORMATIONS” (priority 2023, published 2024).

What was measured:
[1] = test system: retinal ECs of BMP9/10 Abs-treated Fucci2 animals; test: Endothelial cell cycle state in BMP9/10 Abs-treated Fucci2 reporter pups; assay type: in vivo, mouse; conditions: BMP9/10 Abs + CDK4/6i, P7 Fucci2
Description: All animal protocols and procedures were approved by the University of Virginia Animal Care and Use Committee and complied with all ethical regulations. Cdh5Cre^ERT21Rha^43 and Alk1^flox/flox were gifted from Drs. Ralf Adams and Paul Oh, respectively. R26p-Fucci2 (Fucci2) (Accession #CDB0203T)^44 and C57bl/6 mice were purchased from Riken and Jax, respectively. Cdh5Cre^ERT2 mice were crossed with Alk1^flox/flox mice (6-8-week-old) to generate Alk1EC^iKO pups. Cre activity in Alk1EC^iKO was induced in pups at P3 via a single intraperitoneal (i.p.) injection of Tamoxifen (Tx; Sigma T5648, […] of 4 mg/ml, resuspended in 10% ethanol and 90% corn oil). Alk1^flox/flox littermates were used as controls. Alk1EC^iKO mice were crossed with Fucci2 mice to generate Alk1EC^iKO-Fucci2 pups.

[2] = test system: ENDOGLIN; test: ENDOGLIN expression in retinal venous ECs of Alk1EC^iKO mice; assay type: in vivo, mouse; conditions: both mRNA and protein levels
Description: FIG. 8A illustrates Western Blot analysis of the phosphorylation of the indicated proteins in response to VEGF-A (1.5 nM) in control vs. CDK4/6i treated HUVECs. FIG. 8B illustrates Western Blot analysis of the phosphorylation of the indicated proteins in response to BMP9 (10 ng/ml) in control vs. CDK4/6i-treated HUVECs. FIG. 8C illustrates quantification of phosphorylation normalized to total protein levels. (N=5 independent experiments, Data are mean±SEM, Mann-Whitney U test: *p<0.05). […] FIG. 8E illustrates ENDOGLIN (green) and IB4 (white) staining of retinal flat-mounts from P5 Alk1^fl/fl, Alk1^fl/fl treated with CDK4/6i, Alk1EC^iKO, and Alk1EC^iKO treated with CDK4/6i animals (A: Artery; V: Vein). FIG. 8F illustrates quantification of fluorescence intensity of ENDOGLIN staining in (FIG. 8E) retinal venous vessels of the indicated animals (N=4 retinas per group. Data are mean±SEM, one-way ANOVA with Tukey's multiple comparison test: *p<0.05; ns p>0.05). FIG. 8G illustrates timeline used for Tx injection, and CDK4/6i and FLT1 blocking antibody treatment of Alk1EC^iKO pups. […]
Eyes from P7 pups were pre-fixed in 4% PFA for 20 min at room temperature (RT). […] Quantification of vascular progression, density, AVM numbers and vessel diameters in the retinal vasculature were performed with Image J software.

## CC(=O)c1c(C)c2cnc(Nc3ccc(N4CCNCC4)cn3)nc2n(C2CCCC2)c1=O [Palbociclib, 6-acetyl-8-cyclopentyl-5-methyl-2-[5-(1-piperazinyl)pyridine-2-ylamino]pyrido[2,3-d]pyrimidin-7(8H)-one]
[1]
  EC cell cycle state (early G1, late G1, S/G2/M) in veins, arteries and capillaries: predominantly in late G1 state
  vascular malformations in retina of Fucci2 pups: vascular malformations were absent
[2]
  expression of ENDOGLIN in venous ECs: promoted the expression of ENDOGLIN in venous ECs
